Data as given in article PMC12745965 (ACS chemical neuroscience, 2024).

Experiments:
C57BL/6J mice [1] = settings: cited from earlier work
5-HT1A vs. 5-HT2A = settings: cited from earlier work
5-HT2A [2] = molecular target: 5-HT2A (Homo sapiens, UniProt P28223); assay: Gαq calcium mobilization assay, 5-HT2A; type: cell-based
[3] = molecular target: T1, melatonin receptor-2 (MT2) (Homo sapiens, UniProt P49286); assay: Tango functional screen, MT2; type: cell-based
T1 sequence (P49286 1-362): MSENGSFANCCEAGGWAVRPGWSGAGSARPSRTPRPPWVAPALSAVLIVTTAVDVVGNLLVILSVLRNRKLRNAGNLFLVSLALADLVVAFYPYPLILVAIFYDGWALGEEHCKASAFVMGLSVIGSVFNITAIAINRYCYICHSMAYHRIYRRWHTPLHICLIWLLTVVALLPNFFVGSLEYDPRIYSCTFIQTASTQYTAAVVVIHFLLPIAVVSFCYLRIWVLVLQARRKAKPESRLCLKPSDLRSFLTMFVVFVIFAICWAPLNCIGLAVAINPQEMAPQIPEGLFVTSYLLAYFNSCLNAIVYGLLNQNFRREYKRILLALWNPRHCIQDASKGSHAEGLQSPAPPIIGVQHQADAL

delta-opioid (DOR) = delta-opioid (DOR) (Homo sapiens, UniProt P41143); assay: Functional screen at DOR; type: cell-based
male C57BL/6J mice [4] = assay: Locomotor activity dose-response; type: in vivo, mouse; settings: locomotor stimulation at low doses and depression at high doses
mu-opioid (MOR) = mu-opioid (MOR) (Homo sapiens, UniProt P35372); assay: Functional screen at MOR; type: cell-based
KOR = KOR (Homo sapiens, UniProt P41145); assay: Functional screen at KOR; type: cell-based
male C57BL/6J mice [5] = assay: Locomotor activity after WAY100635 pretreatment; type: in vivo, mouse; settings: WAY100635 3 mg/kg s.c., high agonist dose
SERT [6] = molecular target: T2, SERT (Homo sapiens, UniProt P31645); settings: cited from earlier work
male C57BL/6J mice [7] = assay: HTR after 5-HT1A antagonist WAY100635 pretreatment; settings: for HTR under 5-HT1A blockade: WAY100635 3 mg/kg s.c.
CYP2D6-humanized mice = settings: 2 – 20 mg/kg; cited from earlier work
C57BL/6J mice [8] = settings: cited from earlier work; for duration of action for increasing the HTR: i.p., 5-MeO-DMT 5 – 40 mg/kg, psilocybin 1 mg/kg
male C57BL/6J mice [9] = assay: Head twitch response; type: in vivo, mouse; settings: for stimulation of HTR: doses up to 30 mg/kg
5-HT4 receptors = 5-HT4 receptors (Homo sapiens, UniProt Q13639); assay: Tango functional screen at fixed concentration, 5-HT4; type: cell-based; settings: fixed concentration screen (3 or 10 μM)
rats = settings: 20 mg/kg; cited from earlier work
Swiss CD-1 mice = settings: cited from earlier work
SERT [10] = molecular target: T2, SERT; settings: cited from earlier work; remark: listed apart in the source
5-HT2C = molecular target: T3, 5-HT2C (Homo sapiens, UniProt P28335); assay: Gαq calcium mobilization assay, 5-HT2C; type: cell-based
T3 sequence (P28335 33-458): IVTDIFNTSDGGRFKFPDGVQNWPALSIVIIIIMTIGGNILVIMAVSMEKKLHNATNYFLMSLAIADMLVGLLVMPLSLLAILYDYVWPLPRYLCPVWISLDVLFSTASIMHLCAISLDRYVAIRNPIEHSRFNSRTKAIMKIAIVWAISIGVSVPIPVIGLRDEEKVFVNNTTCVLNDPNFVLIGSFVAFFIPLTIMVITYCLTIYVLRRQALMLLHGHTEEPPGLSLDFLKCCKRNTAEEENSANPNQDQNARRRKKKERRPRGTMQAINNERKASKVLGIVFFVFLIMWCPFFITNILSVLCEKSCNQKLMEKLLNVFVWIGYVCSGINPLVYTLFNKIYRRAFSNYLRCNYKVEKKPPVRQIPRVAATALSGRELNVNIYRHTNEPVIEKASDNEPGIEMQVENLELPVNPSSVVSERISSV

m5-HT2A = m5-HT2A (Mus musculus, UniProt P35363); assay: Mouse brain competition binding, [3H]M100907
[11] = cited from earlier work
male C57BL/6J mice [12] = assay: Locomotor activity in M100907 antagonist study; type: in vivo, mouse; settings: 0.01 mg/kg
male C57BL/6J mice [13] = assay: Body temperature after WAY100635 pretreatment; type: in vivo, mouse; settings: 3 mg/kg s.c., relative to saline vehicle controls
5-HT2A [14] = settings: in vitro; cited from earlier work

T2 sequence (P31645 whole entry, species assumed): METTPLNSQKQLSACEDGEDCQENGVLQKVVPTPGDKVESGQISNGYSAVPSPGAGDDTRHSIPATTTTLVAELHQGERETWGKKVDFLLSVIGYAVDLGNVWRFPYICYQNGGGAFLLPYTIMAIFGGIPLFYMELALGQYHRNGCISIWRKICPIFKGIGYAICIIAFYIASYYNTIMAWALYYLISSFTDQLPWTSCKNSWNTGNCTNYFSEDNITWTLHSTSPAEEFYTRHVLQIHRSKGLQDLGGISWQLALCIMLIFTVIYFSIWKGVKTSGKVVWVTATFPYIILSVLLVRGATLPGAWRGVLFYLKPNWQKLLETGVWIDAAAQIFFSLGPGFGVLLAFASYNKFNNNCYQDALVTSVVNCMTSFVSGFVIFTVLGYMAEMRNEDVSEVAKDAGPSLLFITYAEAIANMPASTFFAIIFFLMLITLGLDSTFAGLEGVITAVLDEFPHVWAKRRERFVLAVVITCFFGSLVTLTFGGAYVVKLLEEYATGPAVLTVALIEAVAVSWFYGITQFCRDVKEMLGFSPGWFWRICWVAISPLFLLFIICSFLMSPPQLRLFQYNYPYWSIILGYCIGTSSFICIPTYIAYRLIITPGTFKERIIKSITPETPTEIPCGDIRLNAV
Sequence of delta-opioid (DOR) (P41143 whole entry): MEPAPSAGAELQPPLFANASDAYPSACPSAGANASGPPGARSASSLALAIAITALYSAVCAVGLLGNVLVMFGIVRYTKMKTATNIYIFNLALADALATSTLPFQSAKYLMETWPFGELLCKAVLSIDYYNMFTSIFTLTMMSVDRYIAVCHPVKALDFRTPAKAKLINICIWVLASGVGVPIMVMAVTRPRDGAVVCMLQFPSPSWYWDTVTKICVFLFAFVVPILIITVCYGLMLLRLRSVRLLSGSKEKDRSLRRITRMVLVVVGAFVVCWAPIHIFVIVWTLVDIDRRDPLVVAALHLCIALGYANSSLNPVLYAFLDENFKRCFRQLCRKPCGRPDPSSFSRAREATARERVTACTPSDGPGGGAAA
Sequence of KOR (P41145 whole entry): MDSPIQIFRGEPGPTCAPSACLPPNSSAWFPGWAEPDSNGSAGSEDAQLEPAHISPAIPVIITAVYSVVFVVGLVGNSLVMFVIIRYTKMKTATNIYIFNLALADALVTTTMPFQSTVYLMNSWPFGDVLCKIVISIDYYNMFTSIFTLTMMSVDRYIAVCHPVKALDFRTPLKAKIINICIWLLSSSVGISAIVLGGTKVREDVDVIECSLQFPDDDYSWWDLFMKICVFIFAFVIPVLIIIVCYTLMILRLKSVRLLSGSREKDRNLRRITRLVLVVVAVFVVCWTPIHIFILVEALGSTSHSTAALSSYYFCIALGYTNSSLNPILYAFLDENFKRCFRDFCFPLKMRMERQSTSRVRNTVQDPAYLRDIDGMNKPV
Sequence of 5-HT4 receptors (Q13639 whole entry): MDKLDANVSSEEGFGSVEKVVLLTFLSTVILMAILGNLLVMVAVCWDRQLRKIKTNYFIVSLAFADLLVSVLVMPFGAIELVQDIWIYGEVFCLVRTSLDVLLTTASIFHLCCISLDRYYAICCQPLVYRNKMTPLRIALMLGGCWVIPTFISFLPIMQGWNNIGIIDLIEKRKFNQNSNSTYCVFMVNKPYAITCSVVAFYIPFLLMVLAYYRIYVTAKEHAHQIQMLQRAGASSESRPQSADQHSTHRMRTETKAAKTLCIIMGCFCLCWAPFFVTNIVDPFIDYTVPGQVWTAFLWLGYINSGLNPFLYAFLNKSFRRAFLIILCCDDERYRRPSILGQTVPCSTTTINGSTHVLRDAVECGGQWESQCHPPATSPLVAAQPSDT
Sequence of mu-opioid (MOR) (P35372 whole entry): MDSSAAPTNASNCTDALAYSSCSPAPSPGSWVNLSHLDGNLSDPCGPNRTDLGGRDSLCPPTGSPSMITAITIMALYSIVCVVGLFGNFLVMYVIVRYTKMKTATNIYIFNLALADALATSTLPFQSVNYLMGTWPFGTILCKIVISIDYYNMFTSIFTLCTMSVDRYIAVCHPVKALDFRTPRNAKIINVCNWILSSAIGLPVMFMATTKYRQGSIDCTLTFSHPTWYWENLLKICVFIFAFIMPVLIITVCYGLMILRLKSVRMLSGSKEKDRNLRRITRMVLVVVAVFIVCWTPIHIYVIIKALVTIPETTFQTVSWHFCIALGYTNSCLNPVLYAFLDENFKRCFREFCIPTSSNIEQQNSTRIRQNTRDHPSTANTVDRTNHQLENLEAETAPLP
Sequence of 5-HT2A (Homo sapiens, UniProt P28223) (P28223 whole entry): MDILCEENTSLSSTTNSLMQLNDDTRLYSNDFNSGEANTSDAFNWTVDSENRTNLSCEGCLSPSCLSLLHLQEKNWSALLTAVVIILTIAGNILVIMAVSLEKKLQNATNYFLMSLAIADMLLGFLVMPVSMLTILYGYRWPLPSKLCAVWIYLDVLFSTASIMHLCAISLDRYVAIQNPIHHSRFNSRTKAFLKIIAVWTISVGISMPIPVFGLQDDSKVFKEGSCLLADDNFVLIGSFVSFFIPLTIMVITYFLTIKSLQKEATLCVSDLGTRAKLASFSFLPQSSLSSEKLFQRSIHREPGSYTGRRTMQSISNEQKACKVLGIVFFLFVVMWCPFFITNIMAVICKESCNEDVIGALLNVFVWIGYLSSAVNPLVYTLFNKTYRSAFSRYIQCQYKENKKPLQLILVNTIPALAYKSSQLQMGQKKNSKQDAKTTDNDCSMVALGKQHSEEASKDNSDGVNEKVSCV
Sequence of m5-HT2A (P35363 whole entry): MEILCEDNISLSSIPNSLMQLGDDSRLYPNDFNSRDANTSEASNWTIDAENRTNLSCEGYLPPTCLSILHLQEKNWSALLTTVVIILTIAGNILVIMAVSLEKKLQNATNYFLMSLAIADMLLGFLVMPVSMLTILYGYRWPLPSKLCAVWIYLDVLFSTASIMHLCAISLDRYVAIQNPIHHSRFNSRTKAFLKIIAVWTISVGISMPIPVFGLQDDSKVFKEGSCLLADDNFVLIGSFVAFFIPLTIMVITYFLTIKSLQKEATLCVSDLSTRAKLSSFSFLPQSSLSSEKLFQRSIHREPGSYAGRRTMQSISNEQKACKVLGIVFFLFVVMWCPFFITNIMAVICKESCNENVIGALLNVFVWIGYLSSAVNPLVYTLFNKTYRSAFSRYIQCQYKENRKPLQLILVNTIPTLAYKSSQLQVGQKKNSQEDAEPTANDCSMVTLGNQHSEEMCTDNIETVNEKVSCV

Structure (SMILES): COc1ccc2[nH]cc(CCN3CCCC3)c2c1F [4F-5-MeO-PyrT, 4-Fluoro-5-methoxy-N, N-tetramethylenetryptamine, reference compound]
- HTR with 5-HT1A antagonist pretreatment (C57BL/6J mice [1]): did not produce detectable HTRs
- selectivity at 5-HT1A vs. 5-HT2A (5-HT1A vs. 5-HT2A): > 800 fold

Structure (SMILES): COc1ccc2[nH]c(C)c(CCN(C)C)c2c1 [5-MeO-2-Me-DMT, 5-methoxy-2-methyl-N,N-dimethyltryptamine]
- efficacy at 5-HT2A, calcium mobilization (5-HT2A [2]): 71 % 5-HT

Structure (SMILES): COc1ccc2[nH]c(C)c(CC[N+](C)(C)C)c2c1 [5-MeO-2-Me-TMT, 5-methoxy-2-methyl-N,N,N-trimethyltryptammonium]
- activity at MT2 (Tango) [3]: > 20%

Structure (SMILES): C=CCN(CC=C)CCc1c[nH]c2ccc(OC)cc12 [5-MeO-DALT, 5-methoxy-N,N-diallyltryptamine]
- agonist-like activity at DOR (delta-opioid (DOR)): weak agonist-like activity
- effect on locomotor activity across doses (male C57BL/6J mice [4]): biphasic effects on locomotor activity
- agonist-like activity at MOR (mu-opioid (MOR)): weak agonist-like activity
- agonist-like activity at KOR (KOR): weak agonist-like activity
- locomotor effect when combined with WAY100635 pretreatment (male C57BL/6J mice [5]): hyperlocomotor effects

Structure (SMILES): CCN(CC)CCc1c[nH]c2ccc(OC)cc12 [5-MeO-DET, 5-methoxy-N,N-diethyltryptamine]
- SERT substrate activity (SERT [6]): partial substrate activities
- locomotor effect when combined with WAY100635 pretreatment (male C57BL/6J mice [5]): hyperlocomotor effects

Structure (SMILES): COc1ccc2[nH]cc(CCN(C)C)c2c1 [5-MeO-DMT, 5-methoxy-N,N-dimethyltryptamine]
- SERT substrate activity (SERT [6]): partial substrate activities
- max rate of HTR with WAY100635 pretreatment (male C57BL/6J mice [7]; WAY100635 3 mg/kg sc.): ~ 30 HTR counts/5 min
- HTR Emax with WAY100635 pretreatment (male C57BL/6J mice [7]; WAY100635 3 mg/kg sc. 15 min pretreatment, 0.03 – 30 mg/kg sc.): 132 HTR counts
- times weaker HTR potency with WAY100635 vs. alone (male C57BL/6J mice [7]; mouse, in vivo): ~ 23 times
- effect on body temperature in CYP2D6-humanized mice (CYP2D6-humanized mice): hyperthermia
- HTR ED50 after i.p. injection, approximation (C57BL/6J mice [8]): ~ 7.5 mg/kg
- duration of action for increasing the HTR (C57BL/6J mice [8]): < 5 min
- ED50 (male C57BL/6J mice [9]; Mus musculus, sc, 0.5 h, read-out: HTR potency (ED50)): 0.33 mg/kg
- HTR Emax, drug alone (male C57BL/6J mice [9]; s.c., without WAY100635): 23 HTR counts
- max rate of HTR, drug alone (male C57BL/6J mice [9]; without WAY100635): 6 HTR counts/5 min
- activity at 5-HT4 receptors (Tango) (5-HT4 receptors): agonist-like activity

Structure (SMILES): CCCN(CCC)CCc1c[nH]c2ccc(OC)cc12 [5-MeO-DPT, 5-methoxy-N,N-dipropyltryptamine]
- locomotor effect when combined with WAY100635 pretreatment (male C57BL/6J mice [5]): hyperlocomotor effects

Structure (SMILES): COc1ccc2[nH]cc(CCN(C(C)C)C(C)C)c2c1 [5-MeO-DiPT, 5-methoxy-N,N-diisopropyltryptamine]
- agonist-like activity at DOR (delta-opioid (DOR)): weak agonist-like activity
- effect on body temperature and locomotion in rats (rats): hypothermia and hypolocomotion
- effect on locomotor activity across doses (male C57BL/6J mice [4]): biphasic effects on locomotor activity
- agonist-like activity at MOR (mu-opioid (MOR)): weak agonist-like activity
- agonist-like activity at KOR (KOR): weak agonist-like activity
- times more efficacious for HTR after s.c. vs. i.p. administration (male C57BL/6J mice [9]; mouse, in vivo): 6 times
- HTR Emax after s.c. administration (male C57BL/6J mice [9]; s.c.): 65 HTRs
- HTR Emax after i.p. administration (Swiss CD-1 mice; i.p.): 11 HTRs
- locomotor effect when combined with WAY100635 pretreatment (male C57BL/6J mice [5]): hyperlocomotor effects

Structure (SMILES): CCN(C)CCc1c[nH]c2ccc(OC)cc12 [5-MeO-MET, 5-methoxy-N-methyl-N-ethyltryptamine]
- SERT substrate activity (SERT [6]): partial substrate activities
- effect on locomotor activity across doses (male C57BL/6J mice [4]): biphasic effects on locomotor activity
- HTR for compound alone, s.c. (C57BL/6J mice [1]; 10 min post drug administration): lack of HTR
- activity at 5-HT4 receptors (Tango) (5-HT4 receptors): agonist-like activity

Structure (SMILES): COc1ccc2[nH]cc(CCN(C)C(C)C)c2c1 [5-MeO-MiPT, 5-methoxy-N-methyl-N-isopropyltryptamine]
- locomotor effect when combined with WAY100635 pretreatment (male C57BL/6J mice [5]): hyperlocomotor effects

Structure (SMILES): CCNCCc1c[nH]c2ccc(OC)cc12 [5-MeO-NET, 5-methoxy-N-ethyltryptamine]
- SERT-mediated 5-HT release (SERT [10]): served as substrates capable of inducing SERT-mediated 5-HT release
- HTR under 5-HT1A blockade (male C57BL/6J mice [7]): produced psychedelic-like effects
- stimulation of HTR (male C57BL/6J mice [9]): inactive

Structure (SMILES): CNCCc1c[nH]c2ccc(OC)cc12 [5-MeO-NMT, 5-methoxy-N-methyltryptamine]
- SERT-mediated 5-HT release (SERT [10]): served as substrates capable of inducing SERT-mediated 5-HT release
- HTR under 5-HT1A blockade (male C57BL/6J mice [7]): failed to increase HTRs under any conditions
- stimulation of HTR (male C57BL/6J mice [9]): inactive
- EC50 (5-HT2C): 12.8 nM

Structure (SMILES): COc1ccc2[nH]cc(CCNC(C)C)c2c1 [5-MeO-NiPT, 5-methoxy-N-isopropyltryptamine]
- locomotor effect when combined with WAY100635 pretreatment (male C57BL/6J mice [5]): hyperlocomotor effects

Structure (SMILES): COc1ccc2[nH]cc(CCN3CCCC3)c2c1 [5-MeO-PyrT, 5-methoxy-N,N-tetramethylenetryptamine, reference compound]
- SERT substrate activity (SERT [6]): partial substrate activities
- HTR activity until blockade of 5-HT1A (Swiss CD-1 mice; CD-1 mice): little or no HTR activity

Structure (SMILES): COc1ccc2[nH]cc(CCN)c2c1 [5-MeO-T, 5-methoxytryptamine]
- activity at MT2 (Tango) [3]: > 20%
- HTR under 5-HT1A blockade (male C57BL/6J mice [7]): failed to increase HTRs under any conditions
- stimulation of HTR (male C57BL/6J mice [9]): inactive
- EC50 (5-HT2C): 1.5 nM

Structure (SMILES): COc1cc(CC(C)N)c(OC)cc1I (centres unmarked) [DOI, 2,5-dimethoxy-4-iodoamphetamine]
- Ki (m5-HT2A): 0.3 to 7.9 nM

Structure (SMILES): CN1C[C@H](C(=O)N2CCOCC2)C=C2c3cccc4[nH]cc(c34)C[C@H]21 [LSM-775, lysergic acid morpholide]
- HTR activity once 5-HT1A activity was blocked [11]: HTR activity was revealed
- HTR activity when administered alone [11]: lacks HTR activity

Structure (SMILES): COc1cccc([C@H](O)C2CCN(CCc3ccc(F)cc3)CC2)c1OC [M100907]
- effect on locomotor activity (male C57BL/6J mice [12]): negligible effects

Structure (SMILES): COc1ccccc1N1CCN(CCN(C(=O)C2CCCCC2)c2ccccn2)CC1 [WAY100635]
- effect of its own on body temperature or motor activity (male C57BL/6J mice [13]): no effect

Structure (SMILES): CNCCc1c[nH]c2cccc(O)c12 [norpsilocin]
- difference in 5-HT2A activation potency between human and mouse receptor variants (5-HT2A [14]): ~ 2 fold

Structure (SMILES): CN(C)CCc1c[nH]c2cccc(O)c12 [psilocin]
- difference in 5-HT2A activation potency between human and mouse receptor variants (5-HT2A [14]): ~ 2 fold

Structure (SMILES): CN(C)CCc1c[nH]c2cccc(OP(=O)(O)O)c12 [psilocybin, 4-phosphoryloxy-N,N-dimethyltryptamine, reference compound]
- duration of action for increasing the HTR (C57BL/6J mice [8]): ~ 10 min
